Measurements taken from patent publication US12636284B2, “Compositions for use in the prevention and/or treatment of intellectual disability and neurodegenerative diseases in a subject with down syndrome” (UNIVERSITA' DEGLI STUDI DI ROMA “LA SAPIENZA”, priority 2021, dated 2026).

Experiments:
Format in all cases: in vivo, mouse
gephyrin and GABAA-R = test: Immunofluorescence of gephyrin and GABAA-R co-localization in hippocampus CA3 and CA1; settings: Ts2Cje mice, confocal microscopy
Experimental: Brains were placed in 4% paraformaldehyde for 24 hours. Brains were then fixed over the subsequent 48 hours in a 20% sucrose solution. Brain sections were then cut to a thickness of 15 μm using a cryostat (Leica System) and stored in an aqueous solution of PBS containing 0.02% NaN3 at 4° C. until use. Slices thus obtained were mounted on slides and were blocked and permeabilized by blocking solution (10% of normal goat serum and 0.2% Triton X-100 in TBS) for 2 hours.
The following day, the same slices were incubated with a mix of fluorescent secondary antibodies, to evaluate the co-localization of the two proteins, anti-mouse Alexa Fluor 488 nm for gephyrin and anti-rabbit Alexa Fluor 594 nm for GABA α2 (1:1500, Invitrogen, Carlsbad, California, CA, USA) for 2 hours at room temperature. The slices were then washed again and incubated with DAPI nuclear marker (1:10000, Invitrogen, Carlsbad, California, CA, USA). To subtract the non-specific background signal created by the secondary antibody, some sections were incubated only with the secondary antibody. Finally, the sample was sealed with a cover slip via fluorimount (Sigma-Aldrich, St Louis, MO, USA). The acquisition and analysis of brain sections was carried out using Leica TCS SP5× confocal microscopy and ImageJ analysis software.

[1] = test system: GABAergic transmission in Ts2Cje mice; test: Patch-clamp electrophysiology, CA1 neurons of hippocampal sections, Ts2Cje mice; settings: Ts2Cje mice (Ts+S) vs vehicle-treated Ts2Cje, after 21 days intranasal treatment
Description: The brain sections containing the hippocampus were obtained from mice belonging to the four experimental groups (Eu Veh, Eu SITA, Ts2 Veh and Ts2 SITA) at 9 months of age after being euthanized by an overdose of isofluorane. Brains were quickly removed and placed in an ice-cold cutting solution containing the following (in mM): 124 NaCl, 3.2 KCl, 1 NaH2PO4, 2 MgCl2, 1 CaCl2), 26 NaHCO3, 10 glucose, 2 Na-pyruvate and 0.6 ascorbic acid, pH 7.4, 95% O2/5% CO2. The brain sections containing the hippocampus ([…]) were cut using a vibratome (VT1000S; Leica Microsystems) and immediately transferred to an incubation chamber filled with ACSF containing the following (in mM): 124 NaCl, 3.2 KCl, 1 NaH2PO4, 1 MgCl2, 2 CaCl2, 26 NaHCO3 and 10 glucose, pH 7.4, 95% O2/5% CO2. Brain sections were allowed to recover at 32° C. for 1 hour before being equilibrated to room temperature. For electrophysiological recordings, brain sections were transferred to a recording chamber constantly perfused with heated ACSF (32° C.) and bubbled with 95% O2/5% CO2. Subsequently, the slices were used for electrophysiological recordings. All electrophysiological recordings were performed using the patch-clamp technique in the whole-cell configuration. […] Membrane capacity and resistance were assessed in the same neurons. […]

[2] = test system: MAPK44/42 and Akt pathway; test: Western blot of Akt and MAPK44/42 activation in hippocampus
Experimental: For the duration of the treatment, the mice were weighed weekly in order to assess any weight changes. After 21 days of treatment, the animals underwent a behavioral test to assess their memory and learning abilities. After the behavioral test, metabolic parameters such as blood glucose (both fasting and under the glycemic curve), body surface area (BSA) and body mass index (BMI) were assessed. Finally, animals were sacrificed using cervical dislocation. The brain and peripheral areas were isolated and collected in liquid nitrogen and subsequently stored at −80° C. until they were used for biochemical analyzes.
Total protein extracts were prepared from the frontal cortex for human autopsy samples and from the hippocampus for mouse samples, using RIPA solution (pH 7.4) containing TrisHCl (50 mM, pH 7.4), NaCl (150 mM), 1% NP-40, 0.25% sodium deoxycholate, ethylenediamine tetracetic acid (EDTA) (1 mM), and 0.1% sodium dodecyl sulfate (SDS). […] For the rest of the experiments, protein extracts were supplemented with cocktails of protease and phosphatase inhibitors (Sigma Aldrich, St Louis, MO, USA). Brain tissues were homogenized in the solution described above by sonication, and centrifuged at 14,000 rpm for 30 min at 4° C. The supernatant was used to determine total protein concentration by means of the bicinchoninic acid assay (BCA, Pierce, Rockford, IL). […]

Ts2Cje mice = test: Novel object recognition (NOR) cognitive test after intranasal treatment; settings: Ts2Cje mice 9 months of age; sitagliptin 5 mM intra-nasally, 10 μL/nostril, once a day for 21 days
Description: Finally, animals were sacrificed using cervical dislocation. […] The Novel object recognition (NOR) test is a relatively fast and efficient means of testing different stages of learning and memory in mice. The test is based on a minimum of three sessions: a habituation session (Day 1), a training session (Day 2) and a test session (Day 3). Training simply involves visual exploration of two identical objects, while the test session involves replacing one of the previously explored objects with a new object. Since rodents have an innate preference for novelty, a rodent that remembers the familiar object will spend more time exploring the new object. […] In the habituation stage, each animal can freely explore the arena for 10 minutes (50 cm deep×30 cm wide×30 cm high) in the absence of objects. During the training stage, a single animal is placed in the arena containing two identical objects (two balls) for 10 min. In the testing stage, after 24 hours, the animal is brought back to the arena with two objects, one is the familiar object and the other is a new object (ball+lego). […] In the analysis stage, the discrimination index (DI) and preference index (PI) are evaluated. The discrimination index (DI) allows calculation of the animal's ability to discriminate between new (TN) and familiar (TF) objects [DI=(TN−TF)/(TN+TF)]. […]

[3] = test system: oxidative stress levels (3-NT, 4-HNE); test: Slot blot of oxidative stress markers 3-NT and 4-HNE in hippocampus
Experimental: The samples (250 μl per well) were loaded into the wells of the slot-blot apparatus and transferred to a nitrocellulose membrane. The membrane was blocked for 2 h with a 3% solution of bovine serum albumin in T-TBS, and incubated with a primary anti-HNE polyclonal antibody (1:3000; HNE, NOVUS, #NB100-63093) or anti-3-NT (1:1000; Sigma Aldrich, #SAB52000009), for 2 hours at room temperature. The membrane was washed with T-TBS and incubated with alkaline phosphatase conjugated anti-rabbit or anti-mouse secondary antibody (1:5000, Sigma Aldrich) for 1 hour at room temperature. […] Finally, the results obtained were analyzed using the ImageLab program (Bio-rad, Hercules, CA, USA).

With `N[C@@H](CC(=O)N1CCn2c(nnc2C(F)(F)F)C1)Cc1cc(F)c(F)cc1F` [sitagliptin, (R)-4-oxo-4-[3-(trifluoromethyl)-5,6-dihydro[1,2,4]triazole[4,3-a]pyrazin-7(8H)-yl]-1-(2,4,5-trifluorophenyl)butan-2-amine] the “clusters of gephyrin and GABAA-R at the synaptic level” value (gephyrin and GABAA-R) was “reduction of the clusters of gephyrin and GABAA-R”, the “spontaneous release rate of the neurotransmitter, CA1 hippocampal neurons” value [1] was “completely reverts the increase in the spontaneous release rate of the neurotransmitter” and the “activation of the cerebral insulin signal, MAPK44/42” value ([2]; Western blot p(Thr202/Tyr204)-MAPK44/42) was “restoration of the activation”. For the same molecule, the “activation of the cerebral insulin signal, Akt” value ([2]; Western blot p(ser473)-Akt) was “restoration of the activation”, the “cognitive performance, novel object recognition (NOR)” value (Ts2Cje mice) was “marked improvement in cognitive performance” and the “oxidative stress levels (3-NT, 4-HNE)” value [3] was “reduction”.
